We go through 14 molecules from patent US20160095843A1, “PYRAZOLOPYRROLIDINE DERIVATIVES AND THEIR USE IN THE TREATMENT OF DISEASE” (NOVARTIS AG, priority 2013, published 2016).

The target of assay [1] is T1, BRD4 (Homo sapiens, UniProt O60885).
T1 construct: 45 nM His-Brd4(44-477) all proteins produced in-house
In words: TR-FRET in-vitro binding assay for BRD4. The conditions noted are these: Biochemical IC50 values, His-Brd4(44-477). The protocol: (§1) TR-FRET In-Vitro Binding Assays for BRD2, BRD3, and BRD4:
(§2) All assays were performed in 384-well microtiter plates. Each assay plate contained 8-point serial dilutions for 40 test compounds, plus 16 high- and 16 low controls. Liquid handling and incubation steps were done on an Innovadyne Nanodrop Express equipped with a robotic arm (Thermo CatX, Perkin Elmer/Caliper Twister II) and an incubator (Liconic STX40, Thermo Cytomat 2C450). The assay plates were prepared by addition of 50n1 per well of compound solution in 90% DMSO HummingBird nanodispenser (Zinsser Analytic). […] Reactions were incubated at 30° C. for 35 minutes. […] After 35 minutes incubation at 30° C., plates were measured in a Perkin Elmer EnVision multilabel reader.
(§3) Preparation of Compound Dilutions
(§4) Test compounds were dissolved in DMSO (10 mM) and transferred into 1.4 mL flat bottom or V-shaped Matrix tubes carrying a unique 2D matrix. The stock solutions were stored at […] if not used immediately. For the test procedure the vials were defrosted and identified by a scanner whereby a working sheet was generated that guided the subsequent working steps. Compound dilutions were made in 96 well plates. This format enabled the assay of maximally 40 individual test compounds at 8 concentrations (single points) including 4 reference compounds, if desired (known BET inhibitors from the prior art, for this and other assays of the type disclosed herein). The dilution protocol included the production of “pre-dilution plates”, “master plates” and “assay plates”.
(§5) Polypropylene 96-well plates were used as pre-dilution plates. […] All dilution steps were done on a HamiltonSTAR robot.
(§6) These plates were used directly for the assay which was performed in a total volume of 13.55 μL.
A general note: Time-resolved FRET reads energy transfer from a long-lived donor to a nearby acceptor.

Assay [2] deals with T2, BRD2 (Homo sapiens, UniProt P25440).
T2 construct: 45 nM His-Brd2(60-472) or 45 nM His-Brd3(20-477)
T2 sequence (P25440 60-472): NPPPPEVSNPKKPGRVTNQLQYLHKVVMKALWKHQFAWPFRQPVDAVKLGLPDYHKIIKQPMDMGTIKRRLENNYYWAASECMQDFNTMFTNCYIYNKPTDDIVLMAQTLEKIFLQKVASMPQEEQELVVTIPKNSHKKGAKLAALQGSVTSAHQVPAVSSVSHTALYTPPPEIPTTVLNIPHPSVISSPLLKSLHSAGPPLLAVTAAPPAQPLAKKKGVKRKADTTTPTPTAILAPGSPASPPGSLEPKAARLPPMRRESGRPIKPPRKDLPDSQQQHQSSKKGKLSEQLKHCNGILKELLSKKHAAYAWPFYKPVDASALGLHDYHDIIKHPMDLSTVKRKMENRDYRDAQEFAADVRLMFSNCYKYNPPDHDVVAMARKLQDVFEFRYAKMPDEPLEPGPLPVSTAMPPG
The assay is described as follows: TR-FRET in-vitro binding assay for BRD2. The conditions noted are these: Biochemical IC50 values, His-Brd2(60-472). The protocol:
as §1, §2, §3, §4, §5, §6

For assay [3], the system named is MV-4-11 cells. The assay is described as follows: Cell growth inhibition assay (CellTiter-Glo), MV-4-11. It counts as cell-based. Conditions: Homo sapiens, MV4-11. In outline: (§7)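 Cellular ATP (CellTiter-Glo luminescence) measured after 4 days at 37° C., 5% CO2 of compound exposure, top concentration 10 μM in 3-fold steps, 0.1% DMSO. Readings corrected for no-cell background and a day-0 plate, normalised to vehicle and medium wells; half-maximal and total growth inhibition from four-parameter curves.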
A general note: In ATP-based viability assays light output follows the ATP content of the culture.

Assay [4] relates to THP-1 cells. The assay is described as follows: Cell growth inhibition assay (CellTiter-Glo), THP-1. It counts as cell-based. Conditions: Homo sapiens. In outline:
as §7

Assay [5] relates to K-562 cells. In words: Cell growth inhibition assay (CellTiter-Glo), K-562. Type of assay: cell-based, human. Conditions: for GI50: Homo sapiens, K562. The method, boiled down:
as §7

The target in assay [6] is T3, BRD3 (Homo sapiens, UniProt Q15059).
T3 construct: 45 nM His-Brd3(20-477) or 45 nM His-Brd4(44-477)
T3 sequence (Q15059 20-477): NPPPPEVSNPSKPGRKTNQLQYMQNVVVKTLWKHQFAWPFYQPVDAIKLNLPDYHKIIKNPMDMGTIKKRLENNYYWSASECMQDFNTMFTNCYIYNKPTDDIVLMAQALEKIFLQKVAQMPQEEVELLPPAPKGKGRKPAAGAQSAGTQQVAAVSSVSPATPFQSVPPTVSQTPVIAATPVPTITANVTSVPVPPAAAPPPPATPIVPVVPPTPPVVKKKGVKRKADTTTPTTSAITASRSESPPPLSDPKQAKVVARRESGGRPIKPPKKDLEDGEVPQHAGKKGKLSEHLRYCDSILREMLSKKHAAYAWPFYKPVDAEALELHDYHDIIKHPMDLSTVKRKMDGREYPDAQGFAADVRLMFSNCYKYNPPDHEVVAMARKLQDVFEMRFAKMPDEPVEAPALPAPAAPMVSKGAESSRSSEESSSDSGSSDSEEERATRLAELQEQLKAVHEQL
In words: TR-FRET in-vitro binding assay for BRD3. The conditions noted are these: Biochemical IC50 values, His-Brd3(20-477). The protocol:
as §1, §2, §3, §4, §5, §6

Assay [7] addresses T4, CREBBP (Homo sapiens, UniProt Q92793).
T4 construct: 324 nM His-CREBBP(1081-1197) (custom production at Viva Biotech Ltd.)
The assay is described as follows: AlphaScreen in-vitro binding assay for CREBBP. Conditions: Biochemical IC50 values, His-CREBBP(1081-1197). The protocol: AlphaScreen In-Vitro Binding Assay for CREBBP
In order to assess bromodomain selectivity, we set up a binding assay using the bromodomain encoded by the CREBBP gene. […] Reactions were incubated at 30° C. for 35 minutes. Subsequently 4.5 μL per well detection mix (50 mM HEPES, pH 7.5, 0.005% Tween20, 0.02% BSA, 150 mM NaCl, 45 μg/ml Ni-chelate acceptor beads, 45 μg/mL streptavidin-donor beads) (Perkin Elmer)) were added. After 60 minutes incubation at room temperature, plates were measured in a Perkin Elmer EnVision multilabel reader. IC50 values were determined from percent inhibition values at different compound concentrations by non-linear regression analysis.
as §3
Test compounds were dissolved in DMSO (10 mM) and transferred into 1.4 mL flat bottom or V-shaped Matrix tubes carrying a unique 2D matrix. The stock solutions were stored at […] if not used immediately. For the test procedure the vials were defrosted and identified by a scanner whereby a working sheet was generated that guided the subsequent working steps. Compound dilutions were made in 96 well plates. This format enabled the assay of maximally 40 individual test compounds at 8 concentrations (single points) including 4 reference compounds, if desired (known BET inhibitors from the prior art, for this and other assays of the type disclosed herein). […]
(In general: Alpha assays give light when donor and acceptor beads are brought close together.)

T4 sequence (Q92793 1081-1197): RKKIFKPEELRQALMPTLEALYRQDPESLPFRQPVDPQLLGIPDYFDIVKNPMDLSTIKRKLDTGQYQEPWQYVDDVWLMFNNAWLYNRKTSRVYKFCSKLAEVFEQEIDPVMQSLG

Usually IC50 stands for the concentration needed to halve the response being measured. For `Cc1cc(N2C(=O)c3nn(C)cc3[C@@H]2c2ccc(Cl)cc2)cn(C)c1=O` [Example 15, (S)-4-(4-chlorophenyl)-5-(1,5-dimethyl-6-oxo-1,6-dihydropyridin-3-yl)-2-methyl-4,5-dihydropyrrolo[3,4-c]pyrazol-6(2H)-one], the IC50 in assay [1] and in assay [2] was over 6.7 µM in each case.
In general, GI50 refers to the concentration giving 50% growth inhibition. In the case of `COc1ncc(-n2nc3c(c2C(C)C)[C@H](c2ccc(Cl)cc2)N(c2cc(C)c4onc(C)c4c2)C3=O)c(OC)n1` [Example 61, (S)-4-(4-chlorophenyl)-2-(2,4-dimethoxypyrimidin-5-yl)-5-(3,7-dimethylbenzo[d]isoxazol-5-yl)-3-isopropyl-4,5-dihydropyrrolo-[3,4-c]pyrazol-6(2H)-one], the IC50 in assay [2] was over 37 µM. Also, the values for the 50% growth inhibitory concentration (GI50) in assay [3], in assay [4] and in assay [5] were 948 nM, 2430 nM and over 10000 nM, respectively.
Regarding `Cc1nn(C2CC2)c2c1[C@H](c1ccc(Cl)cc1)N(c1cc(Cl)c(=O)n(C)c1)C2=O` [Example 50, (S)-5-(5-chloro-1-methyl-6-oxo-1,6-dihydropyridin-3-yl)-4-(4-chlorophenyl)-1-cyclopropyl-3-methyl-4,5-dihydropyrrolo[3,4-c]pyrazol-6(1H)-one], the IC50 in assay [1] and in assay [6] was over 6.7 µM in each case.
Turning to `Cc1cc(N2C(=O)c3nn(C4CC4)c(C)c3[C@@H]2c2ccc(Cl)cc2)cn(C)c1=O` [Example 22, (S)-4-(4-chlorophenyl)-2-cyclopropyl-5-(1,5-dimethyl-6-oxo-1,6-dihydropyridin-3-yl)-3-methyl-4,5-dihydropyrrolo[3,4-c]pyrazol-6(2H)-one], the 50% inhibitory concentration (IC50) in assay [1] and in assay [6] was over 6.7 µM throughout.
On to `Cc1nn(C2CC2)c2c1C(c1ccc(Cl)cc1)N(c1cc(C)c(=O)n(C)c1)C2=O` (racemic) [Example 23, 4-(4-chlorophenyl)-1-cyclopropyl-5-(1,5-dimethyl-6-oxo-1,6-dihydropyridin-3-yl)-3-methyl-4,5-dihydropyrrolo-[3,4-c]pyrazol-6(1H)-one], for which the results for the half-inhibitory concentration (IC50) in assay [2], in assay [6] and in assay [7] were 0.099 µM, 0.074 µM and 3.9 µM, respectively.
With `Cc1nn(C2CC2)c2c1[C@H](c1ccc(Cl)cc1)N(c1cc(C)c3nnc(C)n3c1)C2=O` [Example 118, (S)-4-(4-chlorophenyl)-1-cyclopropyl-5-(3,8-dimethyl-[1,2,4]triazolo[4,3-a]pyridin-6-yl)-3-methyl-4,5-dihydropyrrolo-[3,4-c]pyrazol-6(1H)-one], the IC50 in assay [6] and in assay [7] was over 37 µM throughout. Also, the GI50 in assay [3] is 1640 nM; in assay [4], 3160 nM; in assay [5], over 10000 nM. Besides, the IC (TGI) in assay [5] is over 10000 nM.
Consider `COc1ncc(-n2nc3c(c2C(C)C)C(c2ccc(Cl)cc2)N(c2ccc4onc(C)c4c2)C3=O)c(OC)n1` (stereo not shown) [Example 54, 4-(4-chlorophenyl)-2-(2,4-dimethoxypyrimidin-5-yl)-3-isopropyl-5-(3-methylbenzo-[d]isoxazol-5-yl)-4,5-dihydropyrrolo[3,4-c]pyrazol-6(2H)-one], for which the GI50 in assay [3] is 458 nM; in assay [4], 637 nM; in assay [5] it was 1530 nM.
The like results for `Cc1nn(C(C)C)c2c1C(c1ccc(Cl)cc1F)N(c1cc(C)c3nnc(C)n3c1)C2=O` (stereo not shown) [Example 168, 4-(4-chloro-2-fluorophenyl)-5-(3,8-dimethyl-[1,2,4]triazolo[4,3-a]pyridin-6-yl)-1-isopropyl-3-methyl-4,5-dihydropyrrolo[3,4-c]pyrazol-6(1H)-one] were, in that order, 24.1 nM, 35.5 nM and 105 nM.
For `COc1ncccc1-n1nc2c(c1C)C(c1ccc(Cl)cc1F)N(c1cc(C)c3nnc(C)n3c1)C2=O` (stereo not shown) [Example 194, 4-(4-chloro-2-fluorophenyl)-5-(3,8-dimethyl-[1,2,4]triazolo[4,3-a]pyridin-6-yl)-2-(2-methoxypyridin-3-yl)-3-methyl-4,5-dihydropyrrolo-[3,4-c]pyrazol-6(2H)-one], the GI50 in assay [3] came out at 48.6 nM; in assay [4], 73.2 nM; in assay [5] it was 245 nM.
The like results for `Cc1nn(-c2ccnn2C)c2c1C(c1ccc(Cl)cc1)N(c1cc(C)c3nnc(C)n3n1)C2=O` (stereo not shown) [Example 114, 4-(4-chlorophenyl)-5-(3,8-dimethyl-[1,2,4]triazolo[4,3-b]pyridazin-6-yl)-3-methyl-1-(1-methyl-1H-pyrazol-5-yl)-4,5-dihydropyrrolo-[3,4-c]pyrazol-6(1H)-one] were, in that order, 20.4 nM, 30.4 nM and 187 nM.
The like results for `Cc1ncccc1-n1nc2c(c1C)C(c1ccc(Cl)cc1)N(c1cc(C)c(=O)n(C)c1)C2=O` (stereo not shown) [Example 81, 4-(4-chlorophenyl)-5-(1,5-dimethyl-6-oxo-1,6-dihydropyridin-3-yl)-3-methyl-2-(2-methylpyridin-3-yl)-4,5-dihydropyrrolo-[3,4-c]pyrazol-6(2H)-one] were, in that order, 95.6 nM, 261 nM and 883 nM.
In the same order, the values of `Cc1nn(-c2ccnn2C)c2c1[C@H](c1ccc(Cl)cc1)N(c1cc(C)c(=O)n(C)c1)C2=O` [Example 121, (S)-4-(4-chlorophenyl)-5-(1,5-dimethyl-6-oxo-1,6-dihydropyridin-3-yl)-3-methyl-1-(1-methyl-1H-pyrazol-5-yl)-4,5-dihydropyrrolo-[3,4-c]pyrazol-6(1H)-one] are 830 nM, 2110 nM and 9710 nM.
For `Cc1cc(N2C(=O)c3nn(C4CC4)c(C)c3C2c2ccc(Cl)cc2)cn2c(C)nnc12` (stereo not shown) [Example 93, 4-(4-chlorophenyl)-2-cyclopropyl-5-(3,8-dimethyl-[1,2,4]triazolo[4,3-a]pyridin-6-yl)-3-methyl-4,5-dihydropyrrolo[3,4-c]pyrazol-6(2H)-one], the concentration for 50% growth inhibition (GI50) in assay [3] was 13.5 nM; in assay [4], 26.4 nM; in assay [5], 80 nM.
`Cc1cc(N2C(=O)c3nn(C)cc3[C@H]2c2ccc(Cl)cc2)cn(C)c1=O` [Example 16, (R)-4-(4-chlorophenyl)-5-(1,5-dimethyl-6-oxo-1,6-dihydropyridin-3-yl)-2-methyl-4,5-dihydropyrrolo-[3,4-c]pyrazol-6(2H)-one]: the GI50 came out at 75.8 nM in assay [3], 101 nM in assay [4] and 624 nM in assay [5].
